Test [1] concerns NGF-induced ERK phosphorylation. Kind of test: Inhibition of NGF-induced Erk 1/2 phosphorylation (pERK). The conditions noted are these: Rattus norvegicus, Table 2. Format: cell-based. The method, then: This assay is useful for establishing that the compounds of the invention are functional NGF antagonists, not receptor agonists (an agonist could conceivably block NGF binding but actually activate the receptor). Erk 1/2 is a kinase activated down stream of TrkA and is a well studied member of the NGF-induced signal transduction cascade.
PC12 cells expressing TrkA and p75 are acutely exposed to 1 ng/mL NGF (15 min; 37° C.; 5% CO2) that is pre-incubated (30 min; room temperature) with or without the compounds. Cells are lysed in Laemmli sample buffer (for SDS-PAGE) or a lysis buffer containing Triton X-100 (for ELISA). Following SDS-PAGE, proteins are electroblotted onto nitrocellulose and immunoprobed for phosphorylated Erk 1 and 2. Blocking and primary antibody incubations of immunoblots are performed in Tris-buffered saline-Tween (10 mM Tris, pH 8.0, 150 mM NaCl, and 0.2% Tween 20) supplemented with 5% (w/v) bovine serum albumin (BSA); secondary antibody incubations are performed in 5% (w/v) dried skim milk powder. Immunoreactive bands are detected by chemiluminescence.
A quantitative method to detect phosphorylated Erk 1/2 by immunofluorescence is also used. Neuroscreen-1 cells are grown in a 96 well plate. NGF preincubated with or without the compounds for 30 minutes, is added to the cells for 5 minutes at 37° C. Cells are then fixed and stained with an antibody against phosphor-ERK 1/2. A fluorescently labeled secondary antibody is used to show the presence of phosphorylated ERK 1/2. Quantitative results are generated by photographing the wells with light of the appropriate wavelength, followed by software based image analysis.

Test [2] has as its system spontaneous pain evoked by intraplantar injection of formalin in the rat. The experiment in a line: Formalin model of acute tonic pain. The class given is in vivo. The conditions noted are these: for pain intensity as evaluated by the licking behavior: s.c. 30 min prior to formalin, 2E 0.1-10 mg/kg, 1G 0.4-20 mg/kg, 47G 10-300 μmol/kg, 50G 30 and 100 μmol/kg. The method, then: Male Sprague-Dawley rats are housed together in groups of three animals under standard conditions with unrestricted access to food and water. All experiments are conducted according to the ethical guidelines for investigations of experimental pain in conscious animals (Zimmerman, 1983).
Assessment of formalin-induced flinching behavior in normal, uninjured rats (body weight 200-300 g) is made after formalin (2.5% in saline, 50-100 μl, s.c.) is injected into the plantar surface of the hindpaw using a 27G needle. Rats are pretreated with test compounds either administered intravenously (IV), by subcutaneous injection (SC) or by orally (PO).
Nociceptive behavior is determined manually every 5 min by measuring the amount of time spent in each of four behavioral categories: 0, treatment of the injected hindpaw is indistinguishable from that of the contralateral paw; 1, the injected paw has little or no weight placed on it; 2, the injected paw is elevated and is not in contact with any surface; 3, the injected paw is licked, bitten, or shaken. A weighted nociceptive score, ranging from 0 to 3 is calculated by multiplying the time spent in each category by the category weight, summing these products, and dividing by the total time for each 5 min block of time. (Coderre et al., Pain 1993; 54: 43). On the basis of the resulting response patterns, […] of nociceptive behavior are identified and scored: first phase (P1; 0-5 min), interphase (Int; 6-15 min), second phase (P2; […]), phase 2A (P2A; 16-40 min) and phase 2B (P2B; 41-60 min).
Statistical analysis is performed using the Prism™ 4.01 software package (GraphPad, San Diego, Calif., USA). The difference in response levels between treatment groups and control vehicle group is analyzed using an ANOVA followed by Bonferroni's method for post-hoc pair-wise comparisons. A p value<0.05 is considered to be significant.

Test [3] relates to hyperalgesia from acute paw inflammation caused by intraplantar λ-carrageenan. The experiment in a line: Carrageenan model (inflammatory pain). The conditions noted are these: rat, SC 10 min pre- and 3 h post-carrageenan, tested 4 h post; 1G 20 mg/kg, 50G 2×105 mg/kg. The class given is in vivo. The method, then:
Acute inflammatory hyperalgesia is induced in rats by unilateral injection of 150 μl of a 3% solution of λ-carrageenan into the plantar surface of the left hind paw 3-5 hours prior to testing. Thermal hyperalgesia, mechanical allodynia, mechanical hyperalgesia, weight bearing asymmetry and paw inflammation are determined. Rats are pretreated with test compounds either administered intravenously (IV), by subcutaneous injection (SC) or by oral gavage (PO). Thermal nociceptive thresholds are determined according to the method described elsewhere (Hargreaves et al., 1988). Briefly, through the glass surface, a radiant heat source (8V, 50 W projector bulb) is focused onto the plantar surface of the hind paw. The rat's paw-withdrawal latency to this stimulus is recorded to the nearest 0.1 s. Each latency score is an average of three trials, which are separated by at least 5 min. In all rats, both the injured and uninjured hind paws are similarly tested, allowing direct comparisons between inflamed and non-inflamed paws. Mechanical hyperalgesia is determined by measuring the difference of withdrawal thresholds in response to increasing pressure in the inflamed vs contralateral paw using the Randall-Sellito Paw pressure meter (IITC Life Science) (Randall L O and Sellito J J., 1957). Briefly, rats are held in a contention jacket suspended by a stand and allowed to acclimate for 10 min. […]

For test [4], the system named is NGF receptors on PC12 cells (TrkA+p75). The experiment in a line: NGF binding (125I-NGF) using PC12 cells. Also on record: species or system rat. The method, then:
NGF binding was evaluated using methods familiar to those who are skilled in the art. Briefly, cells expressing one or both NGF receptors (PC12: TrkA+p75; A875: p75 alone; HEK/CHO_trkA: TrkA alone) were harvested by replacing the medium with the cell dissociation buffer (Amersham) and incubating at 37° C. for 15 min. […] For most compounds, multiple dose-response curves were generated.
The IC50 data shown in Tables A-J were acquired using the procedure described herein using PC12 cells.

The next test relates to PC12 cells. Kind of test: Inhibition of NGF-induced neurite outgrowth. The settings on record: Rattus norvegicus, PC-12, 96 h, Table 3, 4 days exposure to NGF. Format: cell-based. The method, then:
This assay is run as a further functional marker of NGF antagonism and takes advantage of the differentiation of PC12 cells (neurite outgrowth) induced by NGF. Cultures of PC12 cells are grown on Terasaki plates pre-coated with poly-D-lysine. Cells are exposed to NGF (1-50 (preferably 5) ng/ml) to induce neurite outgrowth as described elsewhere [LA Greene & AS Tischler, Establishment of a noradrenergic clonal line of rat adrenal pheochromocytoma cells which respond to nerve growth factor, Proc Natl Acad Sci USA. 1976 July; 73(7): 2424-2428]. In addition to NGF, cells are exposed to varying concentration of the compounds or vehicle. Following 4 days of exposure to NGF in the presence or absence of compound, neurite outgrowth is quantified. A neurite is scored if its caliber from origin to terminal is approximately the same and the length is equal to or greater than 1.5 the cell body diameter. The number of neurite bearing cells per total number of viable cells is calculated for each condition; the number of cells with neurites in the presence of NGF (without compound exposure) is considered to represent maximal (100%) outgrowth, to which the inhibitory effect of compounds of the invention on NGF-induced outgrowth is compared.

Where [5] appears, read: Table 2, read-out: NGF Binding Assay IC50.
Setting [6] is: Table J (Formula VIII), NGF binding, PC12 cells, read-out: IC50.

Where two headings read alike, the source gives them in different places. Some results are limits rather than exact numbers.

Usually IC50 stands for the concentration that gives 50% inhibition. As for `O=C(O)CCCN1C(=O)c2cccc3cc(-n4cnnn4)cc(c23)C1=O` [Compound 50G, 4-[1,3-Dioxo-5-(1H-tetrazol-1-yl)-1H-benzo[de]isoquinolin-2(3H)-yl]butanoic acid], the half-inhibitory concentration (IC50) was 5 to 15 µM in test [1], under 10 µM in test [4] (setting [5]) and under 10 µM in test [4] (setting [6]). The “pain intensity as evaluated by the licking behavior” value in test [2] was “dose-dependent reduction of the pain intensity”. Further, the “mechanical hyperalgesia (Randall-Sellito)” value in test [3] is reported as “marginally improving the mechanical hyperalgesia”. In test [3], the “thermal hyperalgesia (Hargreaves' assay)” value was “significantly reversed the thermal hyperalgesia”.
A word on the ED50: it is the midpoint of the dose-response relation. `Cn1nnnc1-c1cc2c3c(cccc3c1)C(=O)N(CCCC(=O)O)C2=O` [Compound 47G, 4-[5-(1-Methyl-1H-tetrazol-5-yl)-1,3-dioxo-1H-benzo[de]isoquinolin-2(3H)-yl]butanoic acid]: the IC50 is 0.1 to 5 µM in the test with PC12 cells; 15 to 25 µM in test [1]; under 10 µM in test [4] (setting [5]); under 10 µM in test [4] (Table 3, read-out: NGF Binding Assay IC50); under 10 µM in test [4] (setting [6]). Also, in test [2], the “pain intensity as evaluated by the licking behavior” value is “dose-dependent reduction of the pain intensity”. For the same compound, the 50% effective dose (ED50) in test [2] (sc, given 30 min prior to formalin injection, read-out: ED50, number of licking and biting episodes in phase IIa of the formalin test) was about 100 µmol/kg.

The values are drawn from US20090082368A1, “METHODS OF MODULATING NEUROTROPHIN-MEDIATED ACTIVITY” (PainCeptor Pharma Corporation, priority 2007, published 2009).
